According to patent publication US20240350643A1, “PROTEIN DEGRADATION AGENT” (SUZHOU KINTOR PHARMACEUTICALS, INC., priority 2021, published 2024):
Read-outs that look alike come from different tables or passages of the source.

How the values were obtained:
HL60 cells = assay: Anti-proliferation ability of compounds on HL60 cells (CTG); type: cell-based, human; conditions: 3 days, CellTiter-Glo, read-out: HL60 cells Proliferation inhibitory activity
Method: II. Activity test 2: Anti-proliferation ability of compounds on HL60 cells: 1 Cell plating
HL60 cells in the logarithmic growth phase were counted and plated evenly in a 96-well transparent bottom white plate at 20000 cells per well and 100 μL per well.
A certain amount of the compounds was weighed and diluted with DMSO to a 10 mM stock solution. The culture mediums corresponding to the cells were taken, and the drugs were diluted to the concentration required by the test, shaken gently and mixed evenly. 50 μl of the gradient dilution of the diluted compound was added to each well of the plated cells, and 50 μL of 0.1% DMSO was added to the control group. The plate was shaken gently, mixed evenly and incubated in a cell culture incubator for 3 days.
• 3.1 The CellTiter-GLo™ (CTG) reagent was taken in advance from the −20° C. refrigerator and equilibrated to room temperature in the dark (white bottle+brown bottle, 1:1 mixing evenly into the brown bottle, for later use). • 3.2 The 96-well plate was taken out and inspected under a microscope for growth situation. • 3.3 The bottom of the 96-well plate was tagged with white paper, and then the plate was wrapped with tin foil paper, shaken at 37° C. at 300 r for 10 min and mixed evenly. • 3.4 50 ul of CTG detection reagent was added to each well, Luminescence signal was detected using a microplate reader, and the inhibition rate was calculated. IC50 values of the compounds were calculated by XLfit software to evaluate the proliferation inhibitory activity on HL60 cells.

c-Myc protein = target: T1, c-Myc protein (Homo sapiens, UniProt P01106); assay: Ability of compounds to degrade c-Myc protein in HL60 cells (ELISA); type: cell-based; conditions: HL-60, 1 μM compound, 24 h, read-out: HL60 cells Protein degradation rate (1 μM)
T1 construct: endogenous in cells; host or cells: HL60 cells
T1 sequence (P01106 whole entry): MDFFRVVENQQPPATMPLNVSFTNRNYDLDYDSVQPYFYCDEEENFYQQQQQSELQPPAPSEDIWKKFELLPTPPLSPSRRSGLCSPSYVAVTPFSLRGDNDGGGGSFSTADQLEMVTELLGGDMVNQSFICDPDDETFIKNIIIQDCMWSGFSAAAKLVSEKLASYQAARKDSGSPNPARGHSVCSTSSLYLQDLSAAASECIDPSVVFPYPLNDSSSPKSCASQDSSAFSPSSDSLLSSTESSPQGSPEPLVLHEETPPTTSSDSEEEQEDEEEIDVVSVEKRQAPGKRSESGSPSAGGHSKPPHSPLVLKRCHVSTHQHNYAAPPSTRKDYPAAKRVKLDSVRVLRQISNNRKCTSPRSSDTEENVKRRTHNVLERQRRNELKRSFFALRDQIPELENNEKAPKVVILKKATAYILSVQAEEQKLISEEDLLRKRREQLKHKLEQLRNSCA
Method: I Activity test 1: Ability of compounds to degrade c-Myc protein in HL60 cells:
HL60 cells in the exponential growth phase were centrifuged, diluted with fresh culture mediums to 6×10^4 cells/100 μL and plated into a 96-well plate at 100 μL per well.
Preparation of test compounds: the compounds were weighed and diluted with DMSO to a 10 mM stock solution for later use. According to test requirements, drugs were diluted with cell culture mediums, with ten-fold dilutions starting from 10 μM, to achieve 3 concentration gradients: 10 μM, 1 μM and 100 NM; and finally, 1 μL of the drugs (DMSO content: 0.01%) were added to each well. For the blank control group, DMSO was also diluted with cell culture mediums, and finally, 1 μL of the control reagent (DMSO content: 0.01%) was added to each well.
3. Effect of drugs on c-Myc in cells as determined by ELISA
After 24 h of drug action, the culture mediums were removed, and the cells were washed once with ice-cold 1× PBS. PBS was removed, and 100 μL of ice-cold 1× Cell Lysis Buffer plus 1 mM phenylmethylsulfonyl fluoride (PMSF) was added to each well. The plate was incubated on ice for 20 min and centrifuged at 4000 RPM at 4° C. for 10 min for later use.
4. Reagent and antibody preparation in ELISA kit 1× wash buffer • 1). 16 mL of ELISA wash buffer concentrate (25×) was diluted with 384 mL of deionized water or distilled water, labeled as 1× Wash Buffer. • 2). The concentrate and 1× Wash Buffer were stored in the refrigerator. The diluted buffer was used within 14 days.
The cell extraction buffer contains 10 mM Tris (pH 7.4), 100 mM NaCl, 1 mM EDTA, 1 mM EGTA, 1 mM NaF, 20 mM Na4P2O7 2 mM Na3VO4. 1% Triton™ ×-100, 10% glycerol, 0.1% SDS and 0.5% deoxycholate. Immediately before use, PMSF (0.3 M stock solution in DMSO) was added to the buffer to a final concentration of 1 mM.
Standard curve configuration: The standard liquid was diluted using glass or plastic tubes. • 1). Huc-Myc (total) standard liquid (Invitrogen, KH02041) was reconstituted with a standard dilution to 1000 pg/mL. Refer to the standard vial label for instructions. The contents were gently swirled or mixed and then allowed to stand for 10 minutes to ensure complete reconstitution, labeled as 1,000 pg/mL human c-Myc. The standard liquid was used within 1 hour after reconstitution. • 2). 250 μL of standard dilution buffers were added to 7 test tubes respectively labeled 500, 250, 125, 62.5, 31.25, 15,63 and 0 pg/mL. • 3). 250 μL of the 1000 pg/ml standard stock solution was added to the first EP tube to a concentration of 500 pg/mL, vortexed and mixed evenly. 250 μL of the resulting mixture was further pipetted and added to the second EP tube to a concentration of 250 pg/mL. Serial dilutions were performed until the sixth EP tube with a concentration of 15.63 pg/mL. Dilution was not performed on the last EP tube. • 4). The remaining reconstituted standard liquid should be discarded, or aliquoted and frozen at −80° C. for further use. Standards can be frozen and thawed only once without losing immunoreactivity.
1× anti-rabbit IgG HRP solution: 1× anti-rabbit IgG HRP solution was prepared within 15 minutes of use. The anti-rabbit IgG HRP (100×) contained 50% viscous glycerol. To ensure accurate dilutions, the following operations were carried out: 1 For each 8-well test strip used in the test, 10 μl, of the anti-rabbit IgG -IRP (100×) solution was pipetted, wherein the pipette tip was wiped with clean absorbent paper to remove excess solutions, and then the solution was dispensed into a test tube containing 1 mL of HRP diluent and mixed thoroughly. 2. The unused anti-rabbit IgG HRP (100×) was placed in the refrigerator for storage.
50 μL of the standard liquid was added to the appropriate wells and not added to the blank control well. Except for the blank control well, 50 μL of Hu c-Myc (total) detection antibody solution was added to each well and mixed by tapping the side face of the plate. […]

Row | Compound | IC50 (HL60 cells; Homo sapiens, HL-60, 72 h) | inhibition at 1 µM (c-Myc protein) | IC50 (HL60 cells)
1 | O=C(Cn1c2ccccc2c2ccccc21)NCCCCCCNC(=O)c1ccc2c(c1)C(=O)N(C1CCC(=O)NC1=O)C2=O (centres unmarked) [A1] | 335 ± 83.1 nM | 30 to 60% | –
2 | O=C(Cn1c2ccccc2c2cccnc21)NCCCCCCNC(=O)c1ccc2c(c1)C(=O)N(C1CCC(=O)NC1=O)C2=O (centres unmarked) [A2] | 50.7 ± 11.4 nM | 30 to 60% | –
3 | O=C(Cn1c2ccccc2c2ccncc21)NCCCCCCNC(=O)c1ccc2c(c1)C(=O)N(C1CCC(=O)NC1=O)C2=O (centres unmarked) [A3] | – | 30 to 60% | –
4 | O=C(Cn1c2ncccc2c2cccnc21)NCCCCCCNC(=O)c1ccc2c(c1)C(=O)N(C1CCC(=O)NC1=O)C2=O (centres unmarked) [A4] | 221 ± 54.5 nM | 10 to 30% | –
5 | O=C(CN(c1ccccc1)c1ccccc1)NCCCCCCNC(=O)c1ccc2c(c1)C(=O)N(C1CCC(=O)NC1=O)C2=O (centres unmarked) [A5] | 391 ± 4.7 nM | 30 to 60% | –
6 | O=C(CN1c2ccccc2Oc2ccccc21)NCCCCCCNC(=O)c1ccc2c(c1)C(=O)N(C1CCC(=O)NC1=O)C2=O (centres unmarked) [A7] | 320 ± 38 nM | 30 to 60% | –
7 | O=C(Cc1cccc2ccccc12)NCCCCCCNC(=O)c1ccc2c(c1)C(=O)N(C1CCC(=O)NC1=O)C2=O (centres unmarked) [A8] | 69.8 ± 8.8 nM | 30 to 60% | –
8 | O=C(Cc1ccc2ccccc2c1)NCCCCCCNC(=O)c1ccc2c(c1)C(=O)N(C1CCC(=O)NC1=O)C2=O (centres unmarked) [A9] | 570 ± 38 nM | 30 to 60% | –
9 | O=C1CCC(N2C(=O)c3ccc(C(=O)NCCCCCCNC(=O)NC4c5ccccc5-c5ccccc54)cc3C2=O)C(=O)N1 (centres unmarked) [A10] | 1213 ± 4 nM | 10 to 30% | –
10 | O=C(CC1c2ccccc2-c2ccccc21)NCCCCCCNC(=O)c1ccc2c(c1)C(=O)N(C1CCC(=O)NC1=O)C2=O (centres unmarked) [A11] | 1240 ± 490 nM | 10 to 30% | –
11 | O=C1CCC(N2Cc3cc(C(=O)NC[C@H]4CC[C@H](NC(=O)NCc5cccc6ccccc56)CC4)ccc3C2=O)C(=O)N1 (some centres unmarked) [A198] | 17.8 ± 1.9 nM | – | –
12 | O=C(CN1CCCc2cccnc21)NCc1ccc(CNC(=O)c2ccc3c(c2)CN(C2CCC(=O)NC2=O)C3=O)cc1 (centres unmarked) [A202] | 6.4 ± 2.7 nM | – | –
13 | CN(CCn1c2ccccc2c2cccnc21)Cc1ccc(CC(=O)Nc2ccc3c(c2)CN(C2CCC(=O)NC2=O)C3=O)cc1 (centres unmarked) [A206] | 0.5 ± 0.2 nM | – | –
14 | O=C(Cn1c2ccccc2c2cccnc21)NCc1ccc(CNC(=O)c2ccc3c(c2)CN(C2CCC(=O)NC2=O)C3=O)c(OC(F)(F)F)c1 (centres unmarked) [A207] | 0.2 nM | – | –
15 | O=C(Cn1c2ccccc2c2cccnc21)NCc1ccc(CNC(=O)c2ccc3c(c2)CN(C2CCC(=O)NC2=O)C3=O)c(C(F)(F)F)c1 (centres unmarked) [A209] | – | – | 0.9 nM
16 | N#Cc1cc(CNC(=O)Cn2c3ccccc3c3cccnc32)ccc1CNC(=O)c1ccc2c(c1)CN(C1CCC(=O)NC1=O)C2=O (centres unmarked) [A210] | 3.6 ± 1.8 nM | – | –
17 | N#Cc1cc(CNC(=O)Cn2c3ccccc3c3cccnc32)ccc1CC(=O)Nc1ccc2c(c1)CN(C1CCC(=O)NC1=O)C2=O (centres unmarked) [A211] | 13.3 ± 1 nM | – | –
18 | O=C1CCC(N2Cc3cc(C(=O)NCc4ccc(C5(NC(=O)Cn6c7ccccc7c7cccnc76)CC5)cc4)ccc3C2=O)C(=O)N1 (centres unmarked) [A212] | 1.5 ± 0.1 nM | – | –

Row | Compound | IC50 (HL60 cells; Homo sapiens, HL-60, 72 h) | inhibition at 1 µM (c-Myc protein) | IC50 (HL60 cells)
19 | O=C(Cn1c2ccccc2c2cccnc21)NCc1ccc(C2(NC(=O)c3ccc4c(c3)CN(C3CCC(=O)NC3=O)C4=O)CC2)cc1 (centres unmarked) [A213] | 5.4 ± 1.9 nM | – | –
20 | O=C1CCC(N2Cc3cc(C(=O)NCc4ccc(C5(NC(=O)Cn6c7ccccc7c7cccnc76)CC5)cn4)ccc3C2=O)C(=O)N1 (centres unmarked) [A214] | 5.2 ± 1.4 nM | – | –
21 | O=C(Cn1c2ccccc2c2cccnc21)NCc1ccc(C2(NC(=O)c3ccc4c(c3)CN(C3CCC(=O)NC3=O)C4=O)CC2)cn1 (centres unmarked) [A215] | 186 ± 67 nM | – | –
22 | O=C(Cn1c2ccccc2c2cccnc21)NCc1ccc(C2(NC(=O)c3ccc4c(c3)CN(C3CCC(=O)NC3=O)C4=O)CC2)cc1F (centres unmarked) [A216] | 3.5 ± 1.1 nM | – | –
23 | Cc1cc(CNC(=O)Cn2c3ccccc3c3cccnc32)ccc1CNC(=O)c1ccc2c(c1)CN(C1CCC(=O)NC1=O)C2=O (centres unmarked) [A217] | 0.6 nM | – | –
24 | O=C(Cn1c2ccccc2c2cccnc21)NCc1ccc(CC(=O)Nc2ccc3c(c2F)CN(C2CCC(=O)NC2=O)C3=O)c(C(F)(F)F)c1 (centres unmarked) [A218] | 3.3 ± 0.8 nM | – | –
25 | O=C(Cn1c2ccccc2c2cccnc21)NCc1ccc(CC(=O)Nc2cc3c(cc2F)C(=O)N(C2CCC(=O)NC2=O)C3)c(C(F)(F)F)c1 (centres unmarked) [A219] | 7.8 ± 2 nM | – | –
26 | O=C(Cn1c2ccccc2c2cccnc21)NCc1ccc(CNC(=O)c2cc3c(cc2F)C(=O)N(C2CCC(=O)NC2=O)C3)cc1 (centres unmarked) [A222] | 0.6 ± 0.2 nM | – | –
27 | O=C(Cn1c2ccccc2c2cccnc21)NCc1ccc(CNC(=O)c2ccc3c(c2F)CN(C2CCC(=O)NC2=O)C3=O)cc1 (centres unmarked) [A223] | 0.7 ± 0.4 nM | – | –
28 | CC(C)(C)C(=O)OCN1C(=O)CCC(N2Cc3cc(C(=O)NCc4ccc(CNC(=O)Cn5c6ccccc6c6cccnc65)cc4)ccc3C2=O)C1=O (centres unmarked) [A226] | 1 nM | – | –
29 | N#Cc1cccc2c3ccccc3n(CC(=O)NCc3ccc(CNC(=O)c4ccc5c(c4)CN(C4CCC(=O)NC4=O)C5=O)cc3)c12 (centres unmarked) [A229] | < 3.04 nM | – | –
30 | O=C1CCC(N2Cc3cc(C(=O)NCc4ccc(CN(CCc5cccc6ccccc56)CCc5cccc6ccccc56)cc4)ccc3C2=O)C(=O)N1 (centres unmarked) [A230] | 11.8 ± 1.2 nM | – | –
31 | O=C1CCC(N2Cc3cc(C(=O)NCc4ccc(CNCCc5cccc6ccccc56)cc4)ccc3C2=O)C(=O)N1 (centres unmarked) [A231] | < 3.04 nM | – | –
32 | O=C1CCC(N2Cc3cc(C(=O)NCc4ccc(CN(CCc5cccc6ccccc56)C(=O)CO)cc4)ccc3C2=O)C(=O)N1 (centres unmarked) [A232] | 0.54 nM | – | –
33 | O=C1CCC(N2Cc3cc(C(=O)NCc4ccc(CN(CCO)CCc5ccc(Cl)c(Cl)c5)cc4)ccc3C2=O)C(=O)N1 (centres unmarked) [A233] | < 3.04 nM | – | –
34 | O=C1CCC(N2Cc3cc(C(=O)NCc4ccc(CN(CCO)CCc5cccc6ccccc56)cc4)ccc3C2=O)C(=O)N1 (centres unmarked) [A234] | 0.71 ± 0.04 nM | – | –
35 | O=C(Cn1c2ccccc2c2cccc(CO)c21)NCc1ccc(CNC(=O)c2ccc3c(c2)C(=O)N(C2CCC(=O)NC2=O)C3=O)cc1 (centres unmarked) [A236] | 6.3 ± 1.2 nM | – | –
